Patent US20070128217A1 (priority 2003, published 2007)

Legend:
[1] = system: rabbit serum obtained by immunizing a rabbit with the SARS-CoV strain Frankfurt 1; format: binding; design: Binding of a rabbit serum to linear peptides / Binding of a rabbit serum to looped peptides / Rabbit serum linear peptides / Rabbit serum looped peptides / Binding of a rabbit serum to linear peptides of protein N of SARS-CoV Urbani (Rabbit serum linear peptides) / Binding of a rabbit serum to looped/cyclic peptides of protein N of SARS-CoV Urbani (Rabbit serum looped peptides): unit not given here
[2] = system: antibodies in sera from SARS patients (sera 1a, 1b, 2, 6, 37, 62, London, SARS-yellow, SARS-green); format: binding, human; design: Binding of serum 6 to linear peptides of protein X1 of SARS-CoV Urbani / Binding of serum 37 to linear peptides of protein X1 of SARS-CoV Urbani / Binding of serum 6 to looped/cyclic peptide (PEPSCAN-ELISA) / Binding of serum 37 to looped/cyclic peptide (PEPSCAN-ELISA) / Binding of serum 37 to looped/cyclic peptides of protein X1 of SARS-CoV Urbani / Binding of serum 6 to linear peptides of protein X2 / Binding of serum 37 to linear peptides of protein X2 / Binding of serum 37 to looped/cyclic peptides of protein X2 of SARS-CoV Urbani / Binding of serum 6 to linear peptides of protein M of SARS-CoV Urbani / Binding of serum 37 to linear peptides of protein M of SARS-CoV Urbani / Binding of serum 6 to looped/cyclic peptides of protein M of SARS-CoV Urbani / Binding of serum 37 to looped/cyclic peptides of protein M of SARS-CoV Urbani / Binding of serum 6 to linear peptides of protein X3 of SARS-CoV Urbani / Binding of serum 37 to linear peptides of protein X3 of SARS-CoV Urbani / Binding of serum 37 to looped/cyclic peptides of protein X3 of SARS-CoV Urbani / Binding of serum 6 to linear peptides of protein X4 of SARS-CoV Urbani / Binding of serum 37 to linear peptides of protein X4 of SARS-CoV Urbani / Binding of serum 37 to looped/cyclic peptides of protein X4 of SARS-CoV Urbani / Binding of serum 6 to linear peptides of protein X5 of SARS-CoV Urbani / Binding of serum 37 to linear peptides of protein X5 of SARS-CoV Urbani / Binding of serum 37 to looped/cyclic peptides of protein X5 of SARS-CoV Urbani / Binding of serum 6 to linear peptides of protein N of SARS-CoV Urbani / Binding of serum 37 to linear peptides of protein N of SARS-CoV Urbani / Binding of serum 6 to linear peptide (PEPSCAN-ELISA) / Binding of serum 1a to looped/cyclic peptides of protein N of SARS-CoV Urbani / Binding of serum 1b to looped/cyclic peptides of protein N of SARS-CoV Urbani / Binding of serum 2 to looped/cyclic peptides of protein N of SARS-CoV Urbani / Binding of serum 6 to looped/cyclic peptides of protein N of SARS-CoV Urbani / Binding of serum 37 to looped/cyclic peptides of protein N of SARS-CoV Urbani / Binding of serum 62 to looped/cyclic peptides of protein N of SARS-CoV Urbani / Binding of serum London to looped/cyclic peptides of protein N of SARS-CoV Urbani / Binding of serum SARS-green to looped/cyclic peptides of protein N of SARS-CoV Urbani: unit not given here
[3] = system: recombinant human anti-SARS-CoV antibody 03-018; format: binding; design: Binding of antibody 03-018 to linear peptides of the N protein of SARS-CoV Urbani / Binding of antibody 03-018 to looped/cyclic peptides of the N protein of SARS-CoV Urbani: unit not given here
[4] = system: control sera (pooled serum of ten healthy LUMC hospital workers; commercial negative donor pooled serum from the Dutch bloodbank); format: binding, human; design: Binding of Control serum LUMC to linear peptides / Binding of Control serum Blood-bank to linear peptides / Binding of Control serum LUMC to looped peptides / Binding of Control Serum Blood-Bank to Looped peptides / Binding of Control serum LUMC to linear peptides of the protein M of SARS-CoV Urbani / Binding of Control serum Blood-bank to linear peptides of the protein M of SARS-CoV Urbani / Binding of Control serum LUMC to looped peptides of the protein M of SARS-CoV Urbani / Binding of Control Serum Blood-Bank to Looped peptides of the protein M of SARS-CoV Urbani: unit not given here

Sequence	Binding of a rabbit serum to linear peptides of protein N of SARS-CoV Urbani (Rabbit serum linear peptides) [1]	Binding of a rabbit serum to looped/cyclic peptides of protein N of SARS-CoV Urbani (Rabbit serum looped peptides) [1]	Binding of serum 1a to linear peptides of protein N of SARS-CoV Urbani [2]	Binding of serum 1a to looped/cyclic peptides of protein N of SARS-CoV Urbani [2]	Binding of serum 1b to linear peptides of protein N of SARS-CoV Urbani [2]	Binding of serum 1b to looped/cyclic peptides of protein N of SARS-CoV Urbani [2]	Binding of serum 2 to linear peptides of protein N of SARS-CoV Urbani [2]	Binding of serum 2 to looped/cyclic peptides of protein N of SARS-CoV Urbani [2]	Binding of serum 6 to linear peptides of protein N of SARS-CoV Urbani [2]	Binding of serum 6 to looped/cyclic peptides of protein N of SARS-CoV Urbani [2]	Binding of serum 37 to linear peptides of protein N of SARS-CoV Urbani [2]	Binding of serum 37 to looped/cyclic peptides of protein N of SARS-CoV Urbani [2]	Binding of serum 62 to linear peptides of protein N of SARS-CoV Urbani [2]	Binding of serum 62 to looped/cyclic peptides of protein N of SARS-CoV Urbani [2]	Binding of serum London to linear peptides of protein N of SARS-CoV Urbani [2]	Binding of serum London to looped/cyclic peptides of protein N of SARS-CoV Urbani [2]	Binding of serum SARS-green to linear peptides of protein N of SARS-CoV Urbani [2]	Binding of serum SARS-green to looped/cyclic peptides of protein N of SARS-CoV Urbani [2]	Binding of serum SARS-yellow to linear peptides of protein N of SARS-CoV Urbani [2]	Binding of serum SARS-yellow to looped/cyclic peptides of protein N of SARS-CoV Urbani [2]	further results
KDKKKKTDEAQPLPQ	0.1	0.0	0.2	0.2	0.1	0.1	0.2	0.2	0.2	0.2	0.7	0.4	0.6	0.3	0.6	0.4	0.5	0.1	0.5	0.1	Binding of antibody 03-018 to linear peptides of the N protein of SARS-CoV Urbani [3]: 0.1; Binding of antibody 03-018 to looped/cyclic peptides of the N protein of SARS-CoV Urbani [3]: 0.2; Control Serum Blood-Bank Looped peptides [4]: 0.5; Control serum Blood-bank linear peptides [4]: 0.6; Control serum LUMC linear peptides [4]: 0.6; Control serum LUMC looped peptides [4]: 0.4
KDNVILLNKHIDAYK	0.2	0.4	0.3	0.3	0.2	0.2	0.3	0.2	0.3	0.1	0.7	0.4	0.8	0.3	0.6	0.3	0.4	0.1	0.8	0.4	Binding of antibody 03-018 to linear peptides of the N protein of SARS-CoV Urbani [3]: 0.1; Binding of antibody 03-018 to looped/cyclic peptides of the N protein of SARS-CoV Urbani [3]: 0.2; Control Serum Blood-Bank Looped peptides [4]: 0.5; Control serum Blood-bank linear peptides [4]: 0.8; Control serum LUMC linear peptides [4]: 0.7; Control serum LUMC looped peptides [4]: 0.5
KEELRFPRGQGVPIN	0.1	0.6	0.2	0.4	0.1	0.3	0.3	0.5	0.2	0.4	0.7	0.7	0.6	0.5	0.5	0.7	0.5	0.4	0.5	0.6	Binding of antibody 03-018 to linear peptides of the N protein of SARS-CoV Urbani [3]: 0.1; Binding of antibody 03-018 to looped/cyclic peptides of the N protein of SARS-CoV Urbani [3]: 0.3; Binding of Control Serum Blood-Bank to Looped peptides [4]: 0.7; Binding of Control serum Blood-bank to linear peptides [4]: 0.8; Binding of Control serum LUMC to linear peptides [4]: 0.7; Binding of Control serum LUMC to looped peptides [4]: 0.7
